Blank lines part the entries; values can stand above or below the molecule they belong to. The source made the active and inactive calls.
Assays:
[1] = molecular target: T1, Sentrin-specific protease 7 (Homo sapiens, UniProt Q9BQF6); format: functional;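 also: Luminescence-based dose-response confirmation of ultra-high-throughput screening hits, measuring inhibition of SENP7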
T1 sequence (Q9BQF6 whole entry): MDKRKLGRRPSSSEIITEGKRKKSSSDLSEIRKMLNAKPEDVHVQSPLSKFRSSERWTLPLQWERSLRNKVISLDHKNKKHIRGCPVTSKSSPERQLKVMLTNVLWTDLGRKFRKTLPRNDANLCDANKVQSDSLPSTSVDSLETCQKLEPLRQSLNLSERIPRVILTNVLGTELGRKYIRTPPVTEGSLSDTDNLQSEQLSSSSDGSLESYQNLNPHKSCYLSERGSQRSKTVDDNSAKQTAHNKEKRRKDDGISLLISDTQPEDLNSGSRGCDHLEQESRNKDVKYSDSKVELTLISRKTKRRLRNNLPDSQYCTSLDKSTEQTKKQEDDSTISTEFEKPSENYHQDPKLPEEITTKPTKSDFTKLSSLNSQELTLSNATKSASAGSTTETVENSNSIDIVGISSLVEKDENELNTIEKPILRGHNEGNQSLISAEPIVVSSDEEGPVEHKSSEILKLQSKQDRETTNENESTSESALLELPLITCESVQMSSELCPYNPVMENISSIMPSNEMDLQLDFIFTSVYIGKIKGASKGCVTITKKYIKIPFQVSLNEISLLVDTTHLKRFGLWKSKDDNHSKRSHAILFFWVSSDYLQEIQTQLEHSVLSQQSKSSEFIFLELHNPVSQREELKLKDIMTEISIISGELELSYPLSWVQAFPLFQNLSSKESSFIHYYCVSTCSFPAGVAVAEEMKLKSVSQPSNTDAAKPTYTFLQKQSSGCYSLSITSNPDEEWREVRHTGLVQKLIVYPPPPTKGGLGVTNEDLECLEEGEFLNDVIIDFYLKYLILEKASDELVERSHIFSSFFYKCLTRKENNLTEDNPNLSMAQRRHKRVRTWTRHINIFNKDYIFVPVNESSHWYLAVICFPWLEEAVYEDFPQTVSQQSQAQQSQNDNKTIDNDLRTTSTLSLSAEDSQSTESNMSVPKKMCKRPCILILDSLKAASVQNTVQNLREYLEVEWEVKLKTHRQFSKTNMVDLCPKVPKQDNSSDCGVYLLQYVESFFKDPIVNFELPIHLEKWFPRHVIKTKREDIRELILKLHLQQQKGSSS

[2] = molecular target: T2, Caspase-3 (Homo sapiens, UniProt P42574); format: functional;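 also: Dose-response selectivity test against caspase-3 for candidate inhibitors of sentrin-specific proteases (SENPs)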
T2 sequence (P42574 whole entry): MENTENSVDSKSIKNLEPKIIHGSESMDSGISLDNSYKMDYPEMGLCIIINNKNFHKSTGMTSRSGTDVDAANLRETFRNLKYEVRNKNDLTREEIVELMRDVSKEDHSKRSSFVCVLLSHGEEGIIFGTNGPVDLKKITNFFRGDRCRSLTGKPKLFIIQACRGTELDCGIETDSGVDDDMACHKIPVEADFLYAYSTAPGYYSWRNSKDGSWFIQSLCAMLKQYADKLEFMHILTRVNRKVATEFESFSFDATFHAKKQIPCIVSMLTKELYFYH

[3] = molecular target: T3, Sentrin-specific protease 6 (Homo sapiens, UniProt Q9GZR1); format: functional;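 also: Luminescence-based dose-response confirmatory assay of SENP6 inhibition, following up an ultra-high-throughput screen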
T3 sequence (Q9GZR1 whole entry): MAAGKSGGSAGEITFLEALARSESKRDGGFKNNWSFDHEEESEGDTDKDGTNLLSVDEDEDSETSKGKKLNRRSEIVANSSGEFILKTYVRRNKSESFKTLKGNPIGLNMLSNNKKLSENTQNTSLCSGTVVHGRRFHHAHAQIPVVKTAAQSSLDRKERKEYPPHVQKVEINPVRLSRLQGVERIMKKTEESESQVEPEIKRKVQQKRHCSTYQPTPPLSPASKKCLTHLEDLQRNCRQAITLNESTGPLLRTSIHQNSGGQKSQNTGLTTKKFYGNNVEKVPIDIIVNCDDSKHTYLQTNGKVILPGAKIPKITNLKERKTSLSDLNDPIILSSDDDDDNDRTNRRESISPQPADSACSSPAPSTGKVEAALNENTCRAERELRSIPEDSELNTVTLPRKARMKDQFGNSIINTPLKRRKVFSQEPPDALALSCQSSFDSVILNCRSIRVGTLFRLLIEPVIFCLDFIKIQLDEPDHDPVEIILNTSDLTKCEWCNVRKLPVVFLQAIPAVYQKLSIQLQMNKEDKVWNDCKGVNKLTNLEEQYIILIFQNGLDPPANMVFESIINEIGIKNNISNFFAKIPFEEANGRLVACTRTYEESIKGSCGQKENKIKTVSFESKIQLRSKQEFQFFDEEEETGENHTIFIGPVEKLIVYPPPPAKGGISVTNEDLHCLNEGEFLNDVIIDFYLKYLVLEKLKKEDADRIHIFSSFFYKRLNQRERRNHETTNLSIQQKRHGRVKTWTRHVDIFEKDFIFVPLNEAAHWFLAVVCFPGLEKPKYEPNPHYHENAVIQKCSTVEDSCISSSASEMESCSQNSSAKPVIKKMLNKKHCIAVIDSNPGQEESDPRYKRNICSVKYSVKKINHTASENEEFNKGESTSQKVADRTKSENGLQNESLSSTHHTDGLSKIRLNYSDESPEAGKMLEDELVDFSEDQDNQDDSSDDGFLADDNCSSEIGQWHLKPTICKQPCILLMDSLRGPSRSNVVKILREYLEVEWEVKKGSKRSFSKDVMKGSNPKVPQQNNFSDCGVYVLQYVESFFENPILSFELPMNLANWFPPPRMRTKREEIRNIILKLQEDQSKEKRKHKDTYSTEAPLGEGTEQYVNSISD

[4] = molecular target: T4, Sentrin-specific protease 8 (Homo sapiens, UniProt Q96LD8); format: functional;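 also: luminescence read-out of SENP8 inhibition, dose-response confirmation following an ultra-high-throughput screen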
T4 sequence (Q96LD8 whole entry): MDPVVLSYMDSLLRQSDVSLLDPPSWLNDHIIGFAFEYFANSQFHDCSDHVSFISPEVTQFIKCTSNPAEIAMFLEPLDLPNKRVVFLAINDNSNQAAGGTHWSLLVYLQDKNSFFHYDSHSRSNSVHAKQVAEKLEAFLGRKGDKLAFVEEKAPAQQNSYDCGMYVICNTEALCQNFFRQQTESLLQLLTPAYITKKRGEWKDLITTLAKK

[5] = molecular target: Heat shock protein HSP 90-alpha (Homo sapiens, UniProt P07900); format: functional, organism-based
[6] = molecular target: Intestinal-type alkaline phosphatase (Homo sapiens, UniProt P09923); experiment: inhibition of human intestinal alkaline phosphatase – biochemical, luminescent, uHTS hits, set 2, dose response (AID 488793); format: functional
Sequence of Intestinal-type alkaline phosphatase (P09923 whole entry): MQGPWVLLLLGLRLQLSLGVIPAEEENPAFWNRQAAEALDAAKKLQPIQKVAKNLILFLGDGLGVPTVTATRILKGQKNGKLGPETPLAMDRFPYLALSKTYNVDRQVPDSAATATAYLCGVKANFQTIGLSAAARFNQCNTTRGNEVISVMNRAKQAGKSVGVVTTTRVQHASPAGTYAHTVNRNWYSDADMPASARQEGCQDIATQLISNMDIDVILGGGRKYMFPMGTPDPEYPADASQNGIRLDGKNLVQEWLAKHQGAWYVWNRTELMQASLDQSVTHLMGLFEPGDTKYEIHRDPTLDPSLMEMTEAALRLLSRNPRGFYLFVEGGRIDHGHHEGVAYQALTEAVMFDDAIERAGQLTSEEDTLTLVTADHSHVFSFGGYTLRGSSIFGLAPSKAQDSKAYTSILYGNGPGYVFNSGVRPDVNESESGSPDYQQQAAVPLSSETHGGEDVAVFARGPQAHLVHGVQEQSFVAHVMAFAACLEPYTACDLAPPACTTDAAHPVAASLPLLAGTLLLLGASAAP

[7] = molecular target: Mitogen-activated protein kinase 14 (Homo sapiens, UniProt Q16539); format: functional;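 also: part of a kinome-wide panel, MAPK14 entry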
Sequence of Mitogen-activated protein kinase 14 (Q16539 whole entry): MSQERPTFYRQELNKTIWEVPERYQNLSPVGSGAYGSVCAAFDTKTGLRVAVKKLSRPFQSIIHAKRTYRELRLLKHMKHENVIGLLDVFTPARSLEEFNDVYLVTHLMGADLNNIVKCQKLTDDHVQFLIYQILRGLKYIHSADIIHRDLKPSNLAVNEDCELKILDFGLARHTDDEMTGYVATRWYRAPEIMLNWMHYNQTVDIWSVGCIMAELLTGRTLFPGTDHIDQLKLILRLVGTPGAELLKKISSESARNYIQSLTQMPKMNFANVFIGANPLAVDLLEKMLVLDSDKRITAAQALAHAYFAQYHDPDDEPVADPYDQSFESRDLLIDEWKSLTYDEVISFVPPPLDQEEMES

[8] = molecular target: ALK tyrosine kinase receptor (Homo sapiens, UniProt Q9UM73); format: functional;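 also: ALK tested as one member of a kinase panel screen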
Sequence of ALK tyrosine kinase receptor (Q9UM73 whole entry): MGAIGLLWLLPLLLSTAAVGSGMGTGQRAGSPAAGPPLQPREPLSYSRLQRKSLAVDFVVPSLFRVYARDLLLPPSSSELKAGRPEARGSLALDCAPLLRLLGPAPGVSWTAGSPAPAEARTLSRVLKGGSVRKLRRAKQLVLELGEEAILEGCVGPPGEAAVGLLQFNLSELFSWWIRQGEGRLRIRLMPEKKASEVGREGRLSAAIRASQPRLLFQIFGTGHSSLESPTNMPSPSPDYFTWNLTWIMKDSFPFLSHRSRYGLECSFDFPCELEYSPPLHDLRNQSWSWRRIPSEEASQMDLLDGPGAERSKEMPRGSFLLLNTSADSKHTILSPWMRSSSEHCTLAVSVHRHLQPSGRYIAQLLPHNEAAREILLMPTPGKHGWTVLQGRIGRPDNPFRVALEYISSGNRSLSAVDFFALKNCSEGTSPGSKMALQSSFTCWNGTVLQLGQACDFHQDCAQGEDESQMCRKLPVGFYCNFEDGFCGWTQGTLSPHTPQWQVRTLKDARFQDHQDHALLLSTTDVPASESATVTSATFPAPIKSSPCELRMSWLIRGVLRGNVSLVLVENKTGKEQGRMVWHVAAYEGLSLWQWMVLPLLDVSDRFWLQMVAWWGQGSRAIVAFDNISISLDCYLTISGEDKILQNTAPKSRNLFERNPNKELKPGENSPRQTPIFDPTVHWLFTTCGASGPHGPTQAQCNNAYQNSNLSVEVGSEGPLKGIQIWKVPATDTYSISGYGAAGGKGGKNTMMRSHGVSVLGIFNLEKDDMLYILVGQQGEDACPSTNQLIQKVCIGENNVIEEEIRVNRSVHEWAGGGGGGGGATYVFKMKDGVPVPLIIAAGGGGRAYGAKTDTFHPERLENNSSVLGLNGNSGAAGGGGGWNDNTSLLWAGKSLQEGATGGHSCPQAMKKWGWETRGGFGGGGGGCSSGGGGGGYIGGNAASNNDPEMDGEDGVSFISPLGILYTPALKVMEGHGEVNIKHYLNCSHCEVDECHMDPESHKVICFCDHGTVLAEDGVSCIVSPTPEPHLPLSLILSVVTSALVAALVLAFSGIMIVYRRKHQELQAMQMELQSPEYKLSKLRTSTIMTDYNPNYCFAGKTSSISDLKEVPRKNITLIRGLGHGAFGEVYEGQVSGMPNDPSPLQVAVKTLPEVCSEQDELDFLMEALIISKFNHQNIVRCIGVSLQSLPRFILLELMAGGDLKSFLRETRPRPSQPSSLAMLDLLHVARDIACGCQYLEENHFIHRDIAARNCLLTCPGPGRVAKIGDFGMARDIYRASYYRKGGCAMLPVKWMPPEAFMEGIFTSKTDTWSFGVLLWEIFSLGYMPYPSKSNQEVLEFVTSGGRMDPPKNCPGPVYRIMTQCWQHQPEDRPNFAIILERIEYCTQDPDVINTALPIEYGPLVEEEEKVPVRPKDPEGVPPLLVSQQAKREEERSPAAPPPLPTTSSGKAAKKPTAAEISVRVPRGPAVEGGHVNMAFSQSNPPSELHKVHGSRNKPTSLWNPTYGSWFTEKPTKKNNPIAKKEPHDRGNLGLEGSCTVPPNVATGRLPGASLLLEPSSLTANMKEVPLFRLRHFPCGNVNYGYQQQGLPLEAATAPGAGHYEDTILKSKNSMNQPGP

Structure (SMILES): CCC(C)n1c(NC(=O)c2ccccc2)c(C#N)c2nc3ccccc3nc21 (stereo not drawn)
IC50 [1]: 2.82 µM (active)
IC50 [2]: 13.3 µM (active)
IC50 [3]: 0.984 µM (active)
IC50 [4]: 2.24 µM (active)

Structure (SMILES): CCN1/C(=C\c2ccc3ccccc3[n+]2CC)Sc2cc(C)ccc21
AC50 [5]: 7.75 µM (active)
IC50 [6]: 23.5 µM (active)

Structure (SMILES): CCCCCCCCCCOC(=O)C[n+]1c(COc2ccc(C)cc2)n(C)c2ccccc21
AC50 [5]: 19.3 µM (active)

Structure (SMILES): O=C(CCl)Oc1ccc2occ(C(=O)c3cccs3)c2c1
IC50 [1]: 10.7 µM (active)
IC50 [2]: 21.4 µM (active)
IC50 [3]: 30.7 µM (active)
IC50 [4]: 38.2 µM (active)

Ki [7]: > 3.98 µM (inactive)
Ki [8]: > 1.58 µM (inactive)
Structure (SMILES): CN1CCN(c2nc(C3=C(c4c[nH]c5ccccc45)C(=O)NC3=O)c3ccccc3n2)CC1 [SOTRASTAURIN]

— ChEMBL document CHEMBL1201862, “PubChem BioAssay data set” (2004)
